Experimental data reported in patent publication US20250257361A1, “COMPOSITIONS AND METHODS FOR TREATING LIVER DISEASES WITH SIRNAS TARGETING SMYD2” (The Board of Regents of The University of Texas System, priority 2022, published 2025).

Key:
[1] = tested on: human SMYD2; assay: SMYD2 luciferase reporter assay (dual Renilla/Firefly) for siRNA knockdown in Cos7 cells; assay type: cell-based; conditions: psiCheck2 human Smyd2 luciferase reporter and siRNA co-transfected, 24 h, triplicates (Table 2; text says 48 hours)
[2] = biological target: SMYD2 (Homo sapiens, UniProt Q9NRG4); conditions: cited from earlier work
[3] = tested on: WD NASH model
Experimental: FIG. 6A. Experimental design for pre-clinical testing of AZ505 in the WD NASH model. WD was given at 8 weeks of age for a total of 2 months. AZ505 treatment started one day after WD was initiated. Vehicle (2.5% DMSO in saline) or AZ505 (10 mg/kg in saline containing 2.5% DMSO) was given to mice intraperitoneally 3 times per week. FIG. 6B. Body weight of vehicle or AZ505 treated mice before and after 2 months of WD (n=15 and 14 mice). FIGS. 6C-6D. Liver weight and liver/body weight ratios of vehicle or AZ505 treated mice after 2 months of WD (n=15 and 14). FIG. 6E. Representative liver pictures and H&E staining of liver sections for vehicle or AZ505 treated mice after 2 months of WD. FIGS. 6F-6G. Liver function analysis using plasma ALT and AST (n=15 and 14). FIGS. 6H-6I. Liver triglyceride and cholesterol analysis (n=15 and 14). FIGS. 6J-6K. Plasma triglyceride and cholesterol analysis (n=15 and 14).
In order to determine if chemical SMYD2 inhibition could serve as orthogonal validation of the genetic findings, and to investigate the therapeutic potential of SMYD2 blockade in fatty liver disease, AZ505 was used. […] WD was fed to WT mice at 8 weeks of age, followed by treatment with vehicle control or AZ505 with a dose of 10 mg/kg (intraperitoneal injection) three times per week (FIG. 6A).
All mice were handled in accordance with the guidelines of the Institutional Animal Care and Use Committee at UT Southwestern. All experiments were done in an age and sex controlled fashion unless otherwise noted. C57BL/6 strain background mice were used for all the experiments. LSL-tdTomato (strain #007914) and Rosa-rtTA; TetO-Cas9 mice (#029415) were obtained from The Jackson Laboratory. Mice homozygous for both Rosa-rtTA and TetO-Cas9 were used to ensure a high Cas9 expression level in the liver. Western Diet (WD) used for NASH modeling is described in (Tsuchida et al., 2018). It is composed of high fat solid food (ENVIGO #TD.120528) and high sugar water containing 23.1 g/L d-fructose (Sigma-Aldrich #F0127) and 18.9 g/L d-glucose (Sigma-Aldrich #G8270).
Liver pieces were fixed in buffered formalin (Fisherbrand #245-685) for 24 h with gentle shaking at 4° C. and then transferred to 70% EtOH for another 24 h with shaking at 4° C. Paraffin embedding, liver sectioning (4 μm thickness), and H&E staining were performed at the UT Southwestern Tissue Management Shared Resource Core. For IHC staining, the following primary antibodies were used: Pten (CST #9559, IHC 1:200); Ki67 (Abcam #AB15580, IHC 1:200). IHC). IHC was performed as previously described (Zhu et al., 2010). TUNEL staining was performed on paraffin embedded liver sections using In Situ Cell Death Detection Kit, Fluorescein (Roche #C755B40) according to the manufacturer's protocol. QuPath software (https://qupath.github.io/) was used to quantify Ki67 and TUNEL staining.
The supernatant after centrifugation (plasma) was analyzed for AST, ALT, cholesterol, and triglyceride using VITROS MicroSlide Technology at the UT Southwestern Metabolic Phenotyping Core. 100-150 mg of liver per sample was weighted and used for lipid extraction and quantification at the UT Southwestern Metabolic Phenotyping Core.

[4] = AZ505 10 mg/kg i.p. 3 times per week vs. vehicle, 2 months WD

Sequence of SMYD2 (Q9NRG4 whole entry, species assumed): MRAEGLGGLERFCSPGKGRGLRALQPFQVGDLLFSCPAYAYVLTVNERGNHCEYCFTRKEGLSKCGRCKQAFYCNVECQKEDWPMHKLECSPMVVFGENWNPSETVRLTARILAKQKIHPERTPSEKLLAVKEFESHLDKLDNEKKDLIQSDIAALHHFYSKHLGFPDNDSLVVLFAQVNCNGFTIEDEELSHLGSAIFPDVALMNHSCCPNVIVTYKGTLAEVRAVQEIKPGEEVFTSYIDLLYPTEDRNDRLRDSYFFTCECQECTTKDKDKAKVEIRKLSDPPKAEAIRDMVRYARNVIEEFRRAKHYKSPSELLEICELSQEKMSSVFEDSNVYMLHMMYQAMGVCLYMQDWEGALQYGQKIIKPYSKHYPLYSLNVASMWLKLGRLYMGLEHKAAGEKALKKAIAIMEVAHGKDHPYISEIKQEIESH

Compound	% mRNA remaining (compared to Ctrl siRNA) [1] [%]	other results
SMYD2 1251-1273: siRNA to human SMYD2; sense GCAAAGAUCAUCCAUAUAUUU (SEQ 77), antisense AUAUAUGGAUGAUCUUUGCCG (SEQ 134) (listed as RNA, chemistry not given here)	30.0	
SMYD2 758-780: siRNA to human SMYD2; sense CGGUUAAGAGAUUCUUAUUUC (SEQ 75), antisense AAUAAGAAUCUCUUAACCGGU (SEQ 132) (listed as RNA, chemistry not given here)	38.8	
SMYD2 1082-1104: siRNA to human SMYD2; sense CAAUAUGGACAGAAAAUCAUU (SEQ 74), antisense UGAUUUUCUGUCCAUAUUGCA (SEQ 131)	35.2	
SMYD2 750-772: siRNA to human SMYD2; sense GAAAUGACCGGUUAAGAGAUU (SEQ 78), antisense UCUCUUAACCGGUCAUUUCUA (SEQ 135) (listed as RNA, chemistry not given here)	26.5	
SMYD2 1078: siRNA to human SMYD2; sense CCUGCAAUAUGGACAGAAAUU (SEQ 62), antisense UUUCUGUCCAUAUUGCAGGUU (SEQ 119) (listed as RNA, chemistry not given here)	107.5	
SMYDS 588: siRNA to human SMYD2; sense CAGCGAUAUUUCCUGAUGUUU (SEQ 67), antisense ACAUCAGGAAAUAUCGCUGUU (SEQ 124) (listed as RNA, chemistry not given here)	26.3	
SMYD2 310: siRNA to human SMYD2; sense GGAGACUGUAAGACUAACAUU (SEQ 63), antisense UGUUAGUCUUACAGUCUCCUU (SEQ 120) (listed as RNA, chemistry not given here)	24.0	
SMYD2 759-781: siRNA to human SMYD2; sense GGUUAAGAGAUUCUUAUUUCU (SEQ 71), antisense AAAUAAGAAUCUCUUAACCGG (SEQ 128) (listed as RNA, chemistry not given here)	37.7	
SMYD2 1252-1274: siRNA to human SMYD2; sense CAAAGAUCAUCCAUAUAUUUC (SEQ 69), antisense AAUAUAUGGAUGAUCUUUGCC (SEQ 126) (listed as RNA, chemistry not given here)	13.1	
SMYD2 757: siRNA to human SMYD2; sense CCGGUUAAGAGAUUCUUAUUU (SEQ 59), antisense AUAAGAAUCUCUUAACCGGUU (SEQ 116) (listed as RNA, chemistry not given here)	82.3	
SMYD2 736: siRNA to human SMYD2; sense CCCAACGGAAGAUAGAAAUUU (SEQ 61), antisense AUUUCUAUCUUCCGUUGGGUU (SEQ 118) (listed as RNA, chemistry not given here)	115.1	
SMYD2 1276-1298: siRNA to human SMYD2; sense GAUCAAACAGGAAAUUGAAAG (SEQ 72), antisense UUCAAUUUCCUGUUUGAUCUC (SEQ 129) (listed as RNA, chemistry not given here)	26.6	
SMYD2 1249: siRNA to human SMYD2; sense CGGCAAAGAUCAUCCAUAUUU (SEQ 60), antisense AUAUGGAUGAUCUUUGCCGUU (SEQ 117) (listed as RNA, chemistry not given here)	110.9	
SMYD2 416-438: siRNA to human SMYD2; sense GAUAAGUUAGACAAUGAGAAG (SEQ 73), antisense UCUCAUUGUCUAACUUAUCCA (SEQ 130) (listed as RNA, chemistry not given here)	28.5	
SMYD2 894: siRNA to human SMYD2; sense CACGCAACGUCAUUGAAGAUU (SEQ 68), antisense UCUUCAAUGACGUUGCGUGUU (SEQ 125) (listed as RNA, chemistry not given here)	18.3	
SMYD2 675: siRNA to human SMYD2; sense GAGCUGUACAGGAAAUCAAUU (SEQ 64), antisense UUGAUUUCCUGUACAGCUCUU (SEQ 121) (listed as RNA, chemistry not given here)	121.4	
SMYD2 767-789: siRNA to human SMYD2; sense GAUUCUUAUUUCUUUACCUGU (SEQ 76), antisense AGGUAAAGAAAUAAGAAUCUC (SEQ 133) (listed as RNA, chemistry not given here)	46.4	
O=C1COc2c(CCNCCN(C(=O)CCNCCc3ccc(Cl)c(Cl)c3)C3CCCCC3)ccc(O)c2N1 [AZ505]		IC50 ([2]; SMYD2): 120 nM; selectivity for SMYD2 [2]: > 600 fold; body weight [3, 4]: significant reductions; liver appearance [3, 4]: Smaller, less pale livers; liver cholesterol [3, 4]: modest increase; liver triglycerides [3, 4]: significant decrease; liver weight [3, 4]: significant reductions; liver/body weight ratios [3, 4]: significant reductions; plasma lipids (triglyceride and cholesterol) [3, 4]: modest increase; steatosis (liver histology, H&E) [3, 4]: dramatically decreased steatosis; transaminitis (plasma ALT and AST) [3, 4]: improved; fatty liver disease (overall effect) ([3]; WD NASH model, AZ505 10 mg/kg i.p. 3 times per week, 2 months): ameliorates; tolerability of dose ([3]; mouse, in vivo): well tolerated
SMYD2 706-728: siRNA to human SMYD2; sense GGUUUUUACCAGCUAUAUUGA (SEQ 70), antisense AAUAUAGCUGGUAAAAACCUC (SEQ 127) (listed as RNA, chemistry not given here)	53.2	
SMYD2 1077: siRNA to human SMYD2; sense CCCUGCAAUAUGGACAGAAUU (SEQ 65), antisense UUCUGUCCAUAUUGCAGGGUU (SEQ 122) (listed as RNA, chemistry not given here)	72.7	
SMYD2 493: siRNA to human SMYD2; sense CGGAUUCCCUGACAAUGAUUU (SEQ 66), antisense AUCAUUGUCAGGGAAUCCGUU (SEQ 123) (listed as RNA, chemistry not given here)	20.0	
